Assay results reported in BindingDB's records for doi:10.1021/acs.jmedchem.5b01153 (University of Illinois At Chicago, 2016).

How the values were obtained:
[1] = target: T1, 5-hydroxytryptamine receptor 2C (Homo sapiens, UniProt P28335); assay: Agonist activity at recombinant human 5HT2C-INI receptor expressed in Flp-In-293 cells assessed as calcium flux by FLIPR assay
T1 sequence (P28335 whole entry): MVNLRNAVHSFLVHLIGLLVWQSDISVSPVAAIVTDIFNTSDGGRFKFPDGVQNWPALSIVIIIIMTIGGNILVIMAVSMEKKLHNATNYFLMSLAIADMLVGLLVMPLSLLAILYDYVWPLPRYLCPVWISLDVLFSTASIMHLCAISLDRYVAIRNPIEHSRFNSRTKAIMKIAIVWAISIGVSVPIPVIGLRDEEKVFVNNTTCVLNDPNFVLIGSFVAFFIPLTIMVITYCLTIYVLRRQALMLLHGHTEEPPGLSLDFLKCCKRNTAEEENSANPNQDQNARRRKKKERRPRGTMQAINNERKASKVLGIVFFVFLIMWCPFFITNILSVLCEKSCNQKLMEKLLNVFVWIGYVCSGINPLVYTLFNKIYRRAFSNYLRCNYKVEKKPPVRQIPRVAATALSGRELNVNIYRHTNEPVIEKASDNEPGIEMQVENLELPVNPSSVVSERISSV

[2] = target: 5-hydroxytryptamine receptor 2B (Homo sapiens, UniProt P41595); assay: Agonist activity at recombinant human 5HT2B receptor expressed in Flp-In-293 cells assessed as calcium flux by FLIPR assay
Sequence of 5-hydroxytryptamine receptor 2B (P41595 whole entry): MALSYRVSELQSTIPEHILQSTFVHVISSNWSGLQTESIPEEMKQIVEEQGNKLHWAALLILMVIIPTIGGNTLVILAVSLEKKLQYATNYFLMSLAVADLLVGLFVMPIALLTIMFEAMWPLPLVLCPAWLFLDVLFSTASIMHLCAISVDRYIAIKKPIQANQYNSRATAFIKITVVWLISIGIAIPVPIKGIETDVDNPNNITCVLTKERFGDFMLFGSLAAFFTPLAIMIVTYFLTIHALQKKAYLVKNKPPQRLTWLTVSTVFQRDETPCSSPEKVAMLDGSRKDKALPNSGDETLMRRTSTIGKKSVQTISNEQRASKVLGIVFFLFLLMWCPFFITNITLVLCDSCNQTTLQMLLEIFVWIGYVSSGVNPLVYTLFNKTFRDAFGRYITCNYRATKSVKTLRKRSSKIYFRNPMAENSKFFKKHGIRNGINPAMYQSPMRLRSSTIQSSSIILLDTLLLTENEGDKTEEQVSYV

SMILES | EC50 [1] [nM] | EC50 [2] [nM]
NCC1CC1c1cc(Cl)c(F)cc1OCCF (stereo unspecified) | 776 | –
C=CCOc1cc(F)c(Cl)cc1C1CC1CN (stereo unspecified) | 308 | 1950
COc1cc(Cl)c(Cl)cc1C1CC1CN (stereo unspecified) | 13 | –
COc1ccc(Cl)c(Cl)c1C1CC1CN (stereo unspecified) | 1.1 | –
COc1ccc(F)c(F)c1C1CC1CN (stereo unspecified) | 15 | –
NCC1CC1c1c(OCCF)ccc(F)c1F (stereo unspecified) | 509 | –
NCC1CC1c1c(OCCF)ccc(Cl)c1F (stereo unspecified) | 386 | –
NCC1CC1c1c(OCCF)ccc(Cl)c1Cl (stereo unspecified) | 234 | –
C=CCOc1ccc(F)c(F)c1C1CC1CN (stereo unspecified) | 151 | –
N[C@@H](Cc1c[nH]c2ccc(O)cc12)C(=O)O [OXITRIPTAN] | 0.219 | –
